Assay results reported in patent US20250304623A1, “PEPTIDES FOR INTRACELLULAR DELIVERY” (UNIVERSIDADE DE SANTIAGO DE COMPOSTELA, priority 2022, published 2025).
*: point of attachment. NHNH2 = NN*

Key:
Format in all cases: cell-based
[1] = system: ARPE19 cells; experiment: EGFP mRNA delivery, robotic library screening, ARPE19
Protocol: (§1) Cells were seeded in a 96 well plate the day before the experiment at a concentration of 50,000 cell/mL (100 μL/w) in DMEM+10% FBS+1% Gln-Abt. For robotic library screening, the delivery of EGFP-mRNA (from TriLink, fully substituted with 5-methoxyuridine, capped and polyadenylated; TriLink, CleanCap® EGFP mRNA (5moU), ref. L-7201) in six different cell lines was performed. Amphiphilic molecule stock solutions were prepared in DMSO as described above and diluted in DMEM to afford a range of concentrations. The solutions of EGFP-mRNA/amphiphilic molecule complexes were freshly prepared prior to the transfection experiments. 35 μL of the corresponding amphiphile were added to 10 μL of a solution of EGFP-mRNA at 10 ng/μL in DMEM. The mixture was shaken for 30 min at room temperature before the addition to the cells. The cell medium was aspirated, and cells were washed with PBS twice. Cells were covered with 39 μL of DMEM and 11 μL of the complex's solution were added to the cells and incubated for 4 h (final concentration of peptide=2.5, 5 and 10 μM; final concentration of EGFP-mRNA=25 ng/well). After the incubation, the medium was replaced by 100 μL of fresh DMEM supplemented with 10% FBS. The total EGFP fluorescence was quantified after 72 h in a well plate reader. Amphiphile transfection efficiency was compared and normalized to Lipofectamine® MessengerMax efficiency (value of 1 in Tables 1-5 and 7; double underlined numbers). All experiments were done in triplicate.
(§2) Tables 1-7: RLuc (pDNA) or EGFP (mRNA) expression levels were normalized to Lipofectamine reagents (value=1) and expressed as fold-times signal increase. In the case of siRNA, the siRNA treated cells fluorescence was compared with siMOCK control fluorescence, while Cas9-RNP mediated knockout was measured against the fluorescence of untreated cells. In both siRNA and Cas9-RNP, values are expressed as % fluorescence reduction. Amphiphile concentration was 5 μM in all cases. All experiments were performed in triplicate.
(§3) Tables 14-19 show the mean (triplicates) fluorescence intensity measured after the transfection of EGFP mRNA by different amphiphiles at different concentrations in a variety of cell lines. Background fluorescence values, accounted by untreated control cells, were subtracted for processing.

[2] = system: A549 cells; experiment: RLuc pDNA delivery, robotic library screening, A549
Protocol: (§4) Cells were seeded in a 96 well plate the day before the experiment at a concentration of 60,000 cell/mL (100 μL/w) in DMEM+10% FBS+1% Gln-Abt. For robotic library screening, the delivery of pDNA encoding for the expression of Renilla luciferase gene (RLuc, pRL-CMV (Promega, #E2261)) in six different cell lines was performed. Amphihilic molecule stock solutions in DMSO were diluted with DMEM and freshly mixed with pDNA stock solutions in DMEM prior to transfection experiments, to afford several complexes at different amphiphile concentration (2-10 μM) while maintaining a constant final pDNA concentration of 2 ng/μL. The mixture was shaken for 30 min at room temperature before the addition to the cells. The cell medium was aspirated, and cells were washed twice with PBS. Finally, 50 μL of the complex's solution were added to the cells and incubated for 4 h. After the incubation, the medium was replaced by 100 μL of fresh DMEM supplemented with 10% FBS. 72 hours after transfection the DMEM was removed, cells were washed once with HBSS and 90 μL of HBSS were added to each well. Cells were incubated at 37° C. for 30 minutes. Then basal luminescence levels were read in a plate reader. Immediately, 10 μL of coelenterazine h in HBSS were added to each well (5 μM final concentration) and cells were incubated at 37° C. for 10 minutes. Finally, the total luminescence measurement of the plates was performed. Amphiphile transfection efficiency was compared and normalized to Lipofectamine® 2000 efficiency (value of 1 in Tables 1-5 and 7; bold numbers). All experiments were done in triplicate.
as §2
(§5) Tables 8-13 show the mean (triplicates) luminescent intensity (RLU) measured after the transfection of RLuc pDNA by different amphiphiles at different concentrations in a variety of cell lines. Background luminescence values, accounted by untransfected control cells, were subtracted for processing.

[3] = system: HepG2 cells; experiment: EGFP mRNA delivery, robotic library screening, HepG2; conditions: HepG2 cells
Protocol: as §1, with “Cells were covered with 39 μL of DMEM and 11 μL of the complex's solution were added to the cells and incubated for 4 h (final concentration of peptide=2.5, 5 and 10 μM; final concentration of EGFP-mRNA=25 ng/well).” left out
as §2, §3

[4] = system: A549 cells; experiment: EGFP mRNA delivery, robotic library screening, A549
Protocol: as §1, §2, §3

[5] = system: HepG2 cells; experiment: RLuc pDNA delivery, robotic library screening, HepG2
Protocol: as §4, §2, §5

Row | Substance | mean fluorescence intensity (EGFP mRNA) ([1]; Myristoleyl, 2.5 μM) | mean fluorescence intensity (EGFP mRNA) ([1]; Myristoleyl, 5 μM) | mean fluorescence intensity (EGFP mRNA) ([1]; Petroselinyl, 2.5 μM) | mean fluorescence intensity (EGFP mRNA) ([1]; Petroselinyl, 5 μM) | mean fluorescence intensity (EGFP mRNA) ([1]; Petroselinyl, 10 μM) | mean luminescent intensity (RLuc pDNA) ([2]; Dodecanal, 10 μM) [RLU] | mean luminescent intensity (RLuc pDNA) ([2]; Dodecanal, 15 μM) [RLU] | mean luminescent intensity (RLuc pDNA) ([2]; Myristoleyl, 10 μM) [RLU] | mean luminescent intensity (RLuc pDNA) ([2]; Oleyl, 10 μM) [RLU] | mean luminescent intensity (RLuc pDNA) ([2]; Oleyl, 15 μM) [RLU] | mean luminescent intensity (RLuc pDNA) ([2]; Palmitoleyl, 10 μM) [RLU] | mean luminescent intensity (RLuc pDNA) ([2]; Palmitoleyl, 15 μM) [RLU] | mean luminescent intensity (RLuc pDNA) ([2]; Petroselinyl, 15 μM) [RLU] | mean fluorescence intensity after transfection of EGFP mRNA ([3]; Oleyl, 5 μM) | mean fluorescence intensity (EGFP mRNA) ([4]; Dodecanal, 2.5 μM) | mean fluorescence intensity (EGFP mRNA) ([4]; Myristoleyl, 5 μM) | mean fluorescence intensity (EGFP mRNA) ([4]; Myristoleyl, 10 μM) | mean fluorescence intensity (EGFP mRNA) ([4]; Oleyl, 2.5 μM) | mean luminescent intensity (RLuc pDNA) ([5]; Myristoleyl, 5 μM) [RLU] | mean luminescent intensity (RLuc pDNA) ([5]; Myristoleyl, 15 μM) [RLU] | also measured
1 | Ac-RRLK*RLK*RRLK*RL-NH2 [Peptide 13.3] | 1787 | 1055 | 1485 | 828 | 1310 | 964 | 1174 | 2097 | 1248 | 1919 | 2647 | 2262 | 2205 | 1087 | 298 | 170 | 240 | 214 | 91601 | 59751 | mean fluorescence intensity (EGFP mRNA) ([1]; Dodecanal, 5 μM): 1162; mean fluorescence intensity (EGFP mRNA) ([1]; Dodecanal, 10 μM): 1636; mean fluorescence intensity (EGFP mRNA) ([1]; Myristoleyl, 10 μM): 1763; mean fluorescence intensity after transfection of EGFP mRNA ([3]; Dodecanal, 10 μM): 674; mean fluorescence intensity after transfection of EGFP mRNA ([3]; Dodecanal, 15 μM): 606; mean fluorescence intensity after transfection of EGFP mRNA ([3]; Palmitoleyl, 5 μM): 689; mean fluorescence intensity after transfection of EGFP mRNA ([3]; Palmitoleyl, 10 μM): 986; mean fluorescence intensity after transfection of EGFP mRNA ([3]; Palmitoleyl, 15 μM): 974; mean fluorescence intensity after transfection of EGFP mRNA ([3]; Petroselinyl, 10 μM): 1128; mean fluorescence intensity after transfection of EGFP mRNA ([3]; Petroselinyl, 15 μM): 967; mean fluorescence intensity (EGFP mRNA) ([4]; Petroselinyl, 2.5 μM): 245; mean fluorescence intensity (EGFP mRNA) ([4]; Petroselinyl, 5 μM): 117; mean fluorescence intensity (EGFP mRNA) ([4]; Petroselinyl, 10 μM): 107; mean luminescent intensity (RLuc pDNA) ([5]; Myristoleyl, 10 μM): 54569 RLU; mean luminescent intensity (RLuc pDNA) ([5]; Oleyl, 15 μM): −1067 RLU; mean luminescent intensity (RLuc pDNA) ([5]; Palmitoleyl, 5 μM): 70999 RLU; mean luminescent intensity (RLuc pDNA) ([5]; Palmitoleyl, 15 μM): 16521 RLU; mean luminescent intensity (RLuc pDNA) ([5]; Petroselinyl, 5 μM): 76240 RLU
2 | Ac-RRLK*RLLRRLK*RL-NH2 (Ac-RRLK(NHNH2)RLLRRLK(NHNH2)RL-NH2; not fully specified; printed as Ac-RRLK*RLLRRLK*RL-NH2; also: K*4,K*11: native or modified lysine (ε-amide to a linker)) [Peptide 13.2] |  |  |  |  |  |  |  |  | 1152 | 1367 |  |  |  | 612 |  |  |  | 136 |  |  | mean luminescent intensity (RLuc pDNA) ([2]; Oleyl, 5 μM): 2368 RLU; mean fluorescence intensity (EGFP mRNA) ([4]; Oleyl, 5 μM): 160; mean fluorescence intensity (EGFP mRNA) ([4]; Oleyl, 10 μM): 22
3 | Ac-RK*LRRLLRK*-NH2 (Ac-RK(NHNH2)LRRLLRK(NHNH2)-NH2; not fully specified; printed as Ac-RK*LRRLLRK*-NH2; also: K*2,K*9: native or modified lysine (ε-amide to a linker)) [Peptide 9.2] | 1377 | 941 |  |  |  | 1215 |  | 3358 |  |  |  |  |  |  |  | 205 | −79 |  | 26828 | 46601 | mean luminescent intensity (RLuc pDNA) ([2]; Myristoleyl, 5 μM): 10365 RLU; mean luminescent intensity (RLuc pDNA) ([2]; Myristoleyl, 15 μM): 1684 RLU; mean luminescent intensity (RLuc pDNA) ([5]; Dodecanal, 10 μM): 5678 RLU; mean luminescent intensity (RLuc pDNA) ([5]; Dodecanal, 15 μM): 2289 RLU; mean luminescent intensity (RLuc pDNA) ([5]; Myristoleyl, 10 μM): 68860 RLU
4 | Ac-RHLK*RHK*RRLK*RH-NH2 (Ac-RHLKRHKRRLKRH-NH2; not fully specified (residues 4, 7, 11); printed as Ac-RHLK*RHK*RRLK*RH-NH2; also: linker on K* not given here) [13(3His)] |  | 393 | 596 | 384 | 508 |  | 1261 | 2256 |  |  | 2866 | 2990 | 8545 |  | 622 | 1386 | 696 | 1063 | 149920 | 29774 | mean luminescent intensity (RLuc pDNA) ([2]; Myristoleyl, 5 μM): 37751 RLU; mean luminescent intensity (RLuc pDNA) ([2]; Oleyl, 5 μM): 25257 RLU; mean luminescent intensity (RLuc pDNA) ([2]; Palmitoleyl, 5 μM): 18924 RLU; mean luminescent intensity (RLuc pDNA) ([2]; Petroselinyl, 5 μM): 5271 RLU; mean fluorescence intensity (EGFP mRNA) ([4]; Dodecanal, 5 μM): 945; mean fluorescence intensity (EGFP mRNA) ([4]; Dodecanal, 10 μM): 453; mean fluorescence intensity (EGFP mRNA) ([4]; Myristoleyl, 2.5 μM): 1558; mean fluorescence intensity (EGFP mRNA) ([4]; Oleyl, 5 μM): 1233; mean fluorescence intensity (EGFP mRNA) ([4]; Oleyl, 10 μM): 109; mean fluorescence intensity (EGFP mRNA) ([4]; Palmitoleyl, 2.5 μM): 1138; mean fluorescence intensity (EGFP mRNA) ([4]; Palmitoleyl, 10 μM): 65; mean fluorescence intensity (EGFP mRNA) ([4]; Petroselinyl, 2.5 μM): 2598; mean fluorescence intensity (EGFP mRNA) ([4]; Petroselinyl, 5 μM): 1675; mean fluorescence intensity (EGFP mRNA) ([4]; Petroselinyl, 10 μM): 1017; mean luminescent intensity (RLuc pDNA) ([5]; Oleyl, 10 μM): 33557 RLU; mean luminescent intensity (RLuc pDNA) ([5]; Oleyl, 15 μM): 1389 RLU; mean luminescent intensity (RLuc pDNA) ([5]; Palmitoleyl, 5 μM): 65912 RLU; mean luminescent intensity (RLuc pDNA) ([5]; Palmitoleyl, 15 μM): 17170 RLU
